Measurements as given in patent publication EP1159261B1, “ANTIZYME MODULATORS AND THEIR USE” (ORIDIGM CORPORATION, priority 1999, dated 2000).
pIC50: −log10 of the molar value. “Also recorded” adds a separate entry of the source. Read-outs that look alike come from different tables or passages of the source.

Assays:
polyamine transporter = assay: polyamine transport assay (^3H-spermidine uptake into cells); assay type: cell-based; details: result in words
Method: Cells in log growth are pre-incubated with an agmatine analog followed by addition of ^3H-spermidine. […] The cells were then washed three times with cold PBS, lysed with 0.1% SDS, and the amount of polyamine incorporation into the cells was determined by scintillation counting of the cell lysates. To determine a Ki, four substrate concentrations and five inhibitor concentrations and a control were tested. The Ki was determined by a non-linear fit to the Michaelis-Menten equation.
(§1) For example, compounds ORI 1041 and ORI 1093 were evaluated as polyamine transport inhibitors and for growth inhibition in a cell based (MDA-MB-231 breast cancer cell line) assay with and without DFMO.

human antizyme sequence [1] = assay: in vitro antizyme dual luciferase frameshifting assay (in vitro translation in reticulocyte lysate); assay type: biochemical; details: for In vitro antizyme induction / antizyme induction: result in words; for antizyme induction: sentence does not say in vitro or in vivo, context is the in vitro assay
From the text: As one skilled in the art would appreciate, there are a multitude of means to test the agmatine and polyamine analogs of the invention for the ability to induce a frameshift. […] This assay allows one to measure the efficiency of translational frameshifting on the human antizyme sequence. Briefly, two variations of the human antizyme sequence were cloned between the renilla (5') and firefly (3') luciferase reporter genes in pRL-SV40 (Promega) plasmids. One plasmid contained the wild type antizyme sequence which requires a +1 frameshift for complete translation, the other plasmid contained modified, in-frame antizyme (control) sequences. These plasmids are utilized to transiently or stably transfect human cell lines with either the wild type or in-frame antizyme sequence-containing plasmids. Renilla and firefly luciferase activity in each assay (with cells containing one of the two plasmids) is measured to account for polymerase fall-off or translational efficiency in the presence or absence of the agmatine and polyamine analogs of the invention. That ratio is used to normalize the firefly luciferase activity seen in the wild type sequence, compared to the in-frame control sequence.
(§2) In vitro assays of the effect of agmatine and polyamine analogs on antizyme frameshifting were performed as follows. Linearized plasmids containing the wild type and in-frame antizyme sequence were transcribed in vitro, followed by in vitro translation in reticulocyte lysate, with and without agmatine and polyamine analogs. Luminescence was measured using the Dual-Luciferase™ reporter assay (Promega).
This assay allows one to measure the efficiency of translational frameshifting on the human antizyme sequence. Briefly, two variations of the human antizyme sequence were cloned between the renilla (5') and firefly (3') luciferase reporter genes in pRL-SV40 (Promega) plasmids. One plasmid contained the wild type antizyme sequence which requires a +1 frameshift for complete translation, the other plasmid contained modified, in-frame antizyme (control) sequences. These plasmids are utilized to transiently or stably transfect human cell lines with either the wild type or in-frame antizyme sequence-containing plasmids. Renilla and firefly luciferase activity in each assay (with cells containing one of the two plasmids) is measured to account for polymerase fall-off or translational efficiency in the presence or absence of the analogs of the invention. That ratio is used to normalize the firefly luciferase activity seen in the wild type sequence, compared to the in-frame control sequence.
as §2, with “agmatine” for “agmatine and polyamine”, “agmatine analogs .” for “agmatine and polyamine analogs.”

[2] = tested on: breast carcinoma cell line, MDA-MB-231; assay: cell growth inhibition, seven days, MTS/PMS dye assay; assay type: cell-based; details: for pIC50: Homo sapiens
Method: The IC50 values in the above Table as well as Tables 1B and 1C below were determined with the breast carcinoma cell line, MDA-MB-231.
Cells were plated in 96-well plates such that they would be in log growth for the duration of the assay. The day after plating, drugs were added to the cells and they were grown for seven days. Cell growth was measured by MTS/PMS dye assay (Promega). The assay was done in the presence of 1 mM aminoguanidine to inhibit amine oxidases from the serum in the culture media and 1 µM spermidine to insure that any growth inhibition was not the result of depletion of external polyamines from the media. The assay was also performed over seven days because this allows for the greatest dynamic range in cell growth due to the mechanism of concomitant inhibition of polyamine biosynthesis and transport. Cells need to divide several times before the intracellular level of polyamines begin to decrease to growth inhibitory levels.
as §1

human antizyme sequence [3] = assay: in vivo (cellular) antizyme dual luciferase frameshifting assay in transfected cell lines; assay type: cell-based; details: for In vivo (cellular) antizyme induction: result in words
Method: As one skilled in the art would appreciate, there are a multitude of means to test the agmatine and polyamine analogs of the invention for the ability to induce a frameshift. For example, Satriano et al. (J. Biol. Chem., 273:15313-15316 (1998)) and the references cited therein utilized an in vitro reticulocyte system. The agmatine and polyamine analogs of the invention were tested in vitro (such as by test tube) and in vivo (such as by cell culture) using the antizyme dual luciferase frameshifting assay as described by Grentzmann, G., et al in RNA 4:479-486, 1998. This assay allows one to measure the efficiency of translational frameshifting on the human antizyme sequence. Briefly, two variations of the human antizyme sequence were cloned between the renilla (5') and firefly (3') luciferase reporter genes in pRL-SV40 (Promega) plasmids. One plasmid contained the wild type antizyme sequence which requires a +1 frameshift for complete translation, the other plasmid contained modified, in-frame antizyme (control) sequences. These plasmids are utilized to transiently or stably transfect human cell lines with either the wild type or in-frame antizyme sequence-containing plasmids. Renilla and firefly luciferase activity in each assay (with cells containing one of the two plasmids) is measured to account for polymerase fall-off or translational efficiency in the presence or absence of the agmatine and polyamine analogs of the invention. That ratio is used to normalize the firefly luciferase activity seen in the wild type sequence, compared to the in-frame control sequence. […] Agmatine and polyamine analogs of the invention were tested in vitro (such as by test tube) and in vivo (such as with cell lines) using the antizyme dual luciferase frameshifting assay as described by Grentzmann, G., et al in RNA 4:479-486, 1998. This assay allows one to measure the efficiency of translational frameshifting on the human antizyme sequence. Briefly, two variations of the human antizyme sequence were cloned between the renilla (5') and firefly (3') luciferase reporter genes in pRL-SV40 (Promega) plasmids. One plasmid contained the wild type antizyme sequence which requires a +1 frameshift for complete translation, the other plasmid contained modified, in-frame antizyme (control) sequences. These plasmids are utilized to transiently or stably transfect human cell lines with either the wild type or in-frame antizyme sequence-containing plasmids. Renilla and firefly luciferase activity in each assay (with cells containing one of the two plasmids) is measured to account for polymerase fall-off or translational efficiency in the presence or absence of the analogs of the invention. That ratio is used to normalize the firefly luciferase activity seen in the wild type sequence, compared to the in-frame control sequence.

[4] = MDA-MB-231, with DFMO, unit inferred, read-out: Cell Growth IC50+DFMO
[5] = MDA-MB-231, without DFMO, unit printed in b172 only, read-out: Cell Growth IC50

Compound: NCCCNCCCCNCCCNS(=O)(=O)c1ccc2oc3ccccc3c2c1 [Analog 1041]
- polyamine transport inhibition (polyamine transporter): fairly good transport inhibitor
- In vitro (human antizyme sequence [1]; antizyme induction at 0.06 mM): 15% at 0.06 mM
- In vitro antizyme induction (human antizyme sequence [1]): demonstrated in vitro induction activity; also recorded: dramatic increase in in vitro induction activity in comparison with spermidine
- pIC50 [2, 4]: 4.28
- pIC50 [2, 5]: 4.30
- pIC50 ([2]; MDA-MB-231, Tables 1A and 1B, unit inferred, read-out: IC50): 4.92
- R value (R= IC50/ IC50+DFMO) ([2]; MDA-MB-231): ~1

Compound: CC(=O)NCCCNCCCCNCCCN [Analog 1110, N^1-acetylspermine]
- In vivo (cellular) (human antizyme sequence [3]; antizyme induction @ 10 mM): 30% @ 10 mM
- In vivo (cellular) antizyme induction (human antizyme sequence [3]): demonstrated antizyme inducing activity
- In vivo (cellular) antizyme induction (human antizyme sequence [3]; listed as ORI 1110): diminished ability to induce the expression of active antizyme in comparison with spermidine

Compound: NCCCCNCCCCNCCCCN [Analog 1190]
- In vivo (cellular) antizyme induction (human antizyme sequence [3]): negative; also recorded: no ability to induce antizyme

Compound: NCCCNCc1ccc(CNCCCN)cc1 [Analog 1283]
- In vivo (cellular) antizyme induction (human antizyme sequence [3]): positive; also recorded: increase in induction activity

Compound: N=C(N)NOCC[C@H](N)C(=O)O [Analog 1284, L-canavanine]
- In vitro antizyme induction (human antizyme sequence [1]): no activity

Compound: NCCCON [Analog 1291, AOPA]
- antizyme induction (human antizyme sequence [1]): no induction activity is observed

Compound: NCCCCON [Analog 1292, AOBA]
- antizyme induction (human antizyme sequence [1]): no induction activity is observed

Compound: O=S(=O)(NCCCNCCCCNCCCNS(=O)(=O)c1ccc2oc3ccccc3c2c1)c1ccc2oc3ccccc3c2c1 [Analog 1293]
- polyamine transport inhibition (polyamine transporter): fairly poor transport inhibitor
- pIC50 [2, 4]: 5.70
- pIC50 [2, 5]: 5.70
- R value (R= IC50/ IC50+DFMO) ([2]; MDA-MB-231): ~1

Compound: CC(N)CCC(C)N (stereo not shown) [Analog 1351, 2,5-diaminohexane]
- In vitro antizyme induction (human antizyme sequence [1]): induces antizyme

Compound: NCCCC[C@H](N)C(=O)O [L-lysine, reference compound]
- antizyme induction (human antizyme sequence [1]): does not induce antizyme activation

Compound: NCCCCNCCCN [Spermidine, reference compound]
- In vivo (cellular) (human antizyme sequence [3]; antizyme induction @ 16 mM): 35% @ 16 mM
- In vitro (human antizyme sequence [1]; antizyme induction @ 1 mM): 22% @ 1 mM

Compound: NCCCCCN [cadaverine, reference compound]
- In vivo (cellular) antizyme induction (human antizyme sequence [3]): only slightly less active than putrescine; also recorded: significant in vivo activity
- In vitro antizyme induction (human antizyme sequence [1]): no induction was observed; also recorded: no in vitro activity

Compound: NCCCNCCCCNCCCN [spermine, reference compound]
- In vivo (cellular) antizyme induction (human antizyme sequence [3]): induced antizyme
- In vitro antizyme induction (human antizyme sequence [1]): induced antizyme

Compound: L-Lys-spermine conjugate [Analog 1202]
- In vivo (cellular) antizyme induction (human antizyme sequence [3]): positive; also recorded: diminished ability to induce antizyme
- In vitro antizyme induction (human antizyme sequence [1]): diminished ability to induce antizyme

Compound: L-Val-spermine [Analog 1157]
- In vitro antizyme induction (human antizyme sequence [1]): retained the ability to induce antizyme

Compound: α-dimethylspermine [Analog 1383]
- In vivo (cellular) antizyme induction (human antizyme sequence [3]): positive; also recorded: to the same extent as spermine
